Numbers after ± are expanded uncertainties.
Settings: Crystal; Boetius hot stage apparatus

In the case of `CNC(=O)[C@H](Cc1cnc[nH]1)NC(C)=O` [N-acetyl-N'-methyl-L-alpha-histidinamide], the Normal melting temperature is reported as -11 ± 6 °C.
